Test results as given in patent US9777005B2 (Takeda Pharmaceutical Company Limited, priority 2012, dated 2017).

Target: T1, human M1 receptor (hCHRM1) (Homo sapiens, UniProt P11229)
T1 construct: expressed in transfected cells; host or cells: CHO-K1
T1 sequence (P11229 1-460): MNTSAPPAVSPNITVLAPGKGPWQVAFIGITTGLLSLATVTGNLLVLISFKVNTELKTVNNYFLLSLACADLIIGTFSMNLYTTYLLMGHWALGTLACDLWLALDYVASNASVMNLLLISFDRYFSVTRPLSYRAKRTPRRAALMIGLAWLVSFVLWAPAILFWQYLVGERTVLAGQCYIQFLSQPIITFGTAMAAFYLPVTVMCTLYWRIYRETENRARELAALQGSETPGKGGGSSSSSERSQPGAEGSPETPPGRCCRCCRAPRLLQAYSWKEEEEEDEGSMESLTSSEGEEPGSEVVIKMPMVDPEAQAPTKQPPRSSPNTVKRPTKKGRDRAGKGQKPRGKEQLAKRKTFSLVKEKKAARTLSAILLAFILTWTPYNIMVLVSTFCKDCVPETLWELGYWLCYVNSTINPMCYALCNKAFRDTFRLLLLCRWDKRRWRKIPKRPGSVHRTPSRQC
Experiment: Measurement of M1 receptor positive allosteric modulator (M1PAM) activity, calcium fluorescence (FLIPRtetra) in CHO-K1 cells in the presence of acetylcholine at EC20
Format: cell-based
Conditions: in the presence of acetylcholine at EC20 (final 0.6 nM), CHO-K1 cells expressing hCHRM1; for EC50: inflection point of M1PAM activity, read-out: IP value; for activity (%) at 10 μM: test compound 10 μM
Summary of the method: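 PAM activity was measured as calcium flux by FLIPRtetra over 1 min after co-addition of compound and EC20 acetylcholine (final 0.6 nM) to Fluo-4-loaded hCHRM1 CHO-K1 cells. The response was scaled between DMSO (0%) and 1 μM acetylcholine (100%), and the inflection point of the concentration curve gives the IP value.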

EC50 [nM] | activity (%) at 10 μM [%] | SMILES
150 | 100 | O=C1c2c(cccc2O[C@@H]2COCC[C@H]2O)CN1Cc1ccc(Cl)cc1 (single isomer, unassigned) [Example 295, 1,5-anhydro-2-O-(2-(4-chlorobenzyl)-3-oxo-2,3-dihydro-1H-isoindol-4-yl)-4-deoxy-threo-pentitol]
18 | 91 | O=C1c2c(cccc2O[C@@H]2CCOC[C@H]2O)CN1Cc1ccc(F)cc1F (single isomer, unassigned) [Example 299, 1,5-anhydro-2-deoxy-3-O-(2-(2,4-difluorobenzyl)-3-oxo-2,3-dihydro-1H-isoindol-4-yl)-threo-pentitol]
120 | 89 | O=C1c2c(cccc2O[C@@H]2COCC[C@H]2O)CN1Cc1ccc(F)cc1F (single isomer, unassigned) [Example 301, 1,5-anhydro-2-deoxy-4-O-(2-(2,4-difluorobenzyl)-3-oxo-2,3-dihydro-1H-isoindol-4-yl)-threo-pentitol]
6.6 | 101 | O=C1c2c(ccnc2O[C@@H]2CCCC[C@H]2O)CN1Cc1c(F)cc(F)cc1F (single isomer, unassigned) [Example 315, 4-((trans-2-hydroxycyclohexyl)oxy)-2-(2,4,6-trifluorobenzyl)-1,2-dihydro-3H-pyrrolo[3,4-c]pyridin-3-one]
26 | 99 | O=C1c2c(cccc2O[C@@H]2CCOC[C@H]2O)CN1Cc1c(F)cc(F)cc1F (single isomer, unassigned) [Example 318, 1,5-anhydro-2-deoxy-3-O-(3-oxo-2-(2,4,6-trifluorobenzyl)-2,3-dihydro-1H-isoindol-4-yl)-threo-pentitol]
9.1 | 104 | O=C1c2c(ccnc2O[C@@H]2CCCC[C@H]2O)CN1Cc1cc(F)ccc1F (single isomer, unassigned) [Example 319, 2-(2,5-difluorobenzyl)-4-((trans-2-hydroxycyclohexyl)oxy)-1,2-dihydro-3H-pyrrolo[3,4-c]pyridin-3-one]
32 | 104 | O=C1c2c(ccnc2O[C@@H]2CCCC[C@H]2O)CN1Cc1cccc(F)c1 (single isomer, unassigned) [Example 321, 2-(3-fluorobenzyl)-4-((trans-2-hydroxycyclohexyl)oxy)-1,2-dihydro-3H-pyrrolo[3,4-c]pyridin-3-one]
20 | 102 | Cn1cc(-c2ccc(CN3Cc4cccc(OCC5CCCO5)c4C3=O)cc2)cn1 (stereo not shown) [Example 5, 2-(4-(1-methyl-1H-pyrazol-4-yl)benzyl)-7-((tetrahydrofuran-2-yl)methoxy)isoindolin-1-one]
31 | 90 | Cn1cc(-c2ccc(CN3Cc4cccc(Oc5c(F)cccc5C#N)c4C3=O)cc2)cn1 [Example 6, 3-fluoro-2-((2-(4-(1-methyl-1H-pyrazol-4-yl)benzyl)-3-oxo-2,3-dihydro-1H-isoindol-4-yl)oxy)benzonitrile]
33 | 99 | Cn1cc(-c2ccc(CN3Cc4cccc(OCCN5CCCC5)c4C3=O)cc2)cn1 [Example 8, 2-(4-(1-methyl-1H-pyrazol-4-yl)benzyl)-7-(2-(pyrrolidin-1-yl)ethoxy)isoindolin-1-one]
34 | 93 | Cn1cc(-c2ccc(CN3Cc4cccc(Oc5c(Cl)cccc5C#N)c4C3=O)cc2)cn1 [Example 9, 3-chloro-2-((2-(4-(1-methyl-1H-pyrazol-4-yl)benzyl)-3-oxo-2,3-dihydro-1H-isoindol-4-yl)oxy)benzonitrile]
54 | 103 | Cn1cc(-c2ccc(CN3Cc4cccc(Oc5c(F)cc([N+](=O)[O-])cc5Cl)c4C3=O)cc2)cn1 [Example 10, 7-(2-chloro-6-fluoro-4-nitrophenoxy)-2-(4-(1-methyl-1H-pyrazol-4-yl)benzyl)isoindolin-1-one]
65 | 102 | Cn1cc(-c2ccc(CN3Cc4cccc(Oc5c(F)cc(N)cc5Cl)c4C3=O)cc2)cn1 [Example 11, 7-(4-amino-2-chloro-6-fluorophenoxy)-2-(4-(1-methyl-1H-pyrazol-4-yl)benzyl)isoindolin-1-one]
36 | 57 | Cn1cc(-c2ccc(CN3Cc4cccc(Oc5c(F)cccc5Cl)c4C3=O)cc2)cn1 [Example 12, 7-(2-chloro-6-fluorophenoxy)-2-(4-(1-methyl-1H-pyrazol-4-yl)benzyl)isoindolin-1-one]
43 | 102 | Cn1cc(-c2ccc(CN3Cc4cccc(OC[C@H]5CCCO5)c4C3=O)cc2)cn1 [Example 13, 2-(4-(1-methyl-1H-pyrazol-4-yl)benzyl)-7-((2R)-(tetrahydrofuran-2-yl)methoxy)isoindolin-1-one]
47 | 106 | Cn1cc(-c2ccc(CN3Cc4cccc(OCC(=O)N5CCCCC5)c4C3=O)cc2)cn1 [Example 16, 2-(4-(1-methyl-1H-pyrazol-4-yl)benzyl)-7-(2-oxo-2-(piperidin-1-yl)ethoxy)isoindolin-1-one]
120 | 118 | Cn1cc(-c2ccc(CN3Cc4cccc(OCCO)c4C3=O)cc2)cn1 [Example 17, 7-(2-hydroxyethoxy)-2-(4-(1-methyl-1H-pyrazol-4-yl)benzyl)isoindolin-1-one]
60 | 107 | Cn1cc(-c2ccc(CN3Cc4cccc(OCCN5CCC(F)(F)CC5)c4C3=O)cc2)cn1 [Example 18, 7-(2-(4,4-difluoropiperidin-1-yl)ethoxy)-2-(4-(1-methyl-1H-pyrazol-4-yl)benzyl)isoindolin-1-one]
110 | 91 | Cn1cc(-c2ccc(CN3Cc4cccc(OCCn5cccn5)c4C3=O)cc2)cn1 [Example 19, 2-(4-(1-methyl-1H-pyrazol-4-yl)benzyl)-7-(2-(H-pyrazol-1-yl)ethoxy)isoindolin-1-one]
80 | 100 | Cn1cc(-c2ccc(CN3Cc4cccc(Oc5cccnc5C#N)c4C3=O)cc2)cn1 [Example 20, 3-((2-(4-(1-methyl-1H-pyrazol-4-yl)benzyl)-3-oxo-2,3-dihydro-1H-isoindol-4-yl)oxy)pyridine-2-carbonitrile]
96 | 105 | Cn1cc(-c2ccc(CN3Cc4cccc(OCCN5CCCCC5)c4C3=O)cc2)cn1 [Example 21, 2-(4-(1-methyl-1H-pyrazol-4-yl)benzyl)-7-(2-(piperidin-1-yl)ethoxy)isoindolin-1-one]
190 | 103 | Cc1n[nH]c(C)c1Oc1cccc2c1C(=O)N(Cc1ccc(-c3cnn(C)c3)cc1)C2 [Example 22, 7-((3,5-dimethyl-1H-pyrazol-4-yl)oxy)-2-(4-(1-methyl-1H-pyrazol-4-yl)benzyl)isoindolin-1-one]
44 | 118 | O=C(NCC1CCCO1)c1ccc(CN2Cc3cccc(OCC4CCCO4)c3C2=O)cc1 (stereo not shown) [Example 38, 4-((1-oxo-7-((tetrahydrofuran-2-yl)methoxy)-1,3-dihydro-2H-isoindol-2-yl)methyl)-N-((tetrahydrofuran-2-yl)methyl)benzamide]
85 | 107 | Cl.N#Cc1cccc(F)c1Oc1cccc2c1C(=O)N(Cc1ccc(-c3ccn[nH]3)cc1)C2 [Example 42, 3-fluoro-2-((3-oxo-2-(4-(1H-pyrazol-5-yl)benzyl)-2,3-dihydro-1H-isoindol-4-yl)oxy)benzonitrile hydrochloride]
270 | 90 | O=C1c2c(cccc2OCC2CCCO2)CN1Cc1ccc(-n2cccn2)cc1 (stereo not shown) [Example 53, 2-(4-(1H-pyrazol-1-yl)benzyl)-7-((tetrahydrofuran-2-yl)methoxy)isoindolin-1-one]
57 | 136 | Cn1cc(-c2ccc(CN3Cc4nccc(OCC5CCCO5)c4C3=O)cc2)cn1 (stereo not shown) [Example 59, 6-(4-(1-methyl-1H-pyrazol-4-yl)benzyl)-4-((tetrahydrofuran-2-yl)methoxy)-6,7-dihydro-5H-pyrrolo[3,4-b]pyridin-5-one]
320 | 115 | O=C1c2c(OCC3CCCO3)ccnc2CN1Cc1ccc(-n2cccn2)cc1 (stereo not shown) [Example 60, 6-(4-(1H-pyrazol-1-yl)benzyl)-4-((tetrahydrofuran-2-yl)methoxy)-6,7-dihydro-5H-pyrrolo[3,4-b]pyridin-5-one]
37 | 113 | O=C1c2c(ccnc2OCC2CCCO2)CN1Cc1ccc(-n2cccn2)cc1 (stereo not shown) [Example 61, 2-(4-(1H-pyrazol-1-yl)benzyl)-4-((tetrahydrofuran-2-yl)methoxy)-1H-pyrrolo[3,4-c]pyridin-3(2H)-one]
63 | 76 | Cn1cc(-c2ccc(CN3Cc4cccc(Oc5c(F)cccc5C#N)c4C3=O)cn2)cn1 [Example 65, 3-fluoro-2-((2-((6-(1-methyl-1H-pyrazol-4-yl)pyridin-3-yl)methyl)-3-oxo-2,3-dihydro-1H-isoindol-4-yl)oxy)benzonitrile]
